One data set deals with wild-type EGFR. The experiment in a line: in vitro kinase inhibition, wild-type EGFR. It counts as biochemical. The method, then:
Larotinib mesylate (Figure 1) is a novel, potent broad-spectrum TKI with EGFR as the main target with a 50% inhibitory concentration (IC50) of 0.6 nM (data not published). […] We hypothesized that the characteristics of larotinib mesylate that facilitate simultaneous inhibition of multiple kinases may improve the tumor inhibiting effect of the drug and decrease the emergence of resistance to larotinib mesylate in solid tumor cells.

In the next data set the test system is tumor-bearing mice. As to the kind of experiment: preclinical pharmacodynamic study in tumor-bearing mice. The class given is in vivo. To be noted: from effective dose of 18 mg/kg in tumor-bearing mice, by body surface area. The method, then:
Animal toxicology studies of larotinib mesylate were conducted in both Sprague–Dawley rats and beagle dogs. […] The maximal tolerable doses (MTDs) were 20 and 25 mg/kg in Sprague–Dawley rats and beagle dogs, respectively.
According to the guidance for clinical trials of antitumor agents published by the Center for Drug Evaluation and Research in China, for cytotoxic antitumor agents, the initial dose in a phase I study can be calculated as 1/10 of the MTD in rodents or 1/6 of the MTD in non-rodent animals ([CFDA, 2012]). For non-cytotoxic antitumor agents, because of their relatively lower toxicity, the initial dose can be set higher. According to the reported preclinical results for larotinib mesylate, the MTD in Sprague–Dawley rats translated to a human equivalent dose of 192 mg/d according to body surface area (calculated by 60 kg body weight), for which 1/10 is 19.2 mg/d ([FDA, 2005]). […] Taking the above results for the toxicology, preclinical pharmacology and pharmacodynamics, and drug specifications (10, 50 and 100 mg) of larotinib mesylate into account, we calculated a recommended starting dose of 50 mg larotinib mesylate for a phase I, first-in-human clinical study, lower than human equivalent 1/6 MTD translated from beagle dogs and near the human equivalent effective dose translated from tumor-bearing mice. […]

The test system of data set [1] is patients with advanced solid tumors. The experiment in a line: phase I safety and tolerance (NCI CTCAE version 4.03, DLTs). The class given is in vivo, human. The method, then:
This was a phase I, single-center, open-label, dose-escalation study conducted at First Hospital of Jilin University, China (registration no.: ChiCTR-OPC-15007153 registered at http://www.chictr.org.cn). Larotinib mesylate hard capsules were produced and supplied by Sunshine Lake Pharma Co., Ltd (Guangdong Province, China) in different unit doses of […] under GMP condition. Seven dose levels were designed in the study: 50, 100, 150, 220, 300, 350, and 400 mg with administration stages labeled cycle 0, cycle 1, and subsequent treatment cycles. Patients received an oral single dose of larotinib mesylate after fasting during a 6-days cycle 0 to evaluate the tolerance and pharmacokinetic characteristics. After cycle 0, larotinib mesylate was continuously administered once daily for 28 days in cycle 1, and the tolerance and pharmacokinetic characteristics of multiple doses were evaluated (Figure 2). The patients who […] disease control (complete response [CR], partial response [PR], or stable disease [SD]) at the end of cycle one were permitted to participate in the subsequent 28-days treatment cycles until progressive disease (PD) or intolerance was observed.
We enrolled three to six patients for each dose level, with the goal of having at least three patients complete the cycle 0 and cycle 1 treatments. We made an enrollment regulation for the extra patients (>3) according to the study stage of the last enrolled patient in the present dose level: If the patient had finished cycle 1 day 22, extra screened patients would be enrolled to the next dose level; if not, the current dose level would be selected. If 1/3 of patients experienced a DLT in cycle 0 or cycle 1, expansion to six patients was required for the current dose level.
DLTs were observed according to the NCI CTCAE version 4.03 and defined as the emergence of any of the following drug-related AEs: hematological toxicity including Grade ≥3 neutropenia or thrombocytopenia and other Grade ≥4 hematological toxicity; nonhematological toxicities including Grade ≥2 atrioventricular block or renal injury; Grade ≥2 nausea, emesis, or diarrhea for ≥7 days despite optimal treatment; Grade ≥3 nausea, emesis, diarrhea, or rash despite supportive care; and alanine aminotransferase (ALT) or aspartate aminotransferase (AST) elevation by more than 5 times the upper limits of normal for ≥7 days and other Grade ≥3 nonhematological toxicities.
Safety was assessed according to the NCI CTCAE version 4.03 including AEs, vital signs, and results from 12-lead […], cardiac ultrasound, physical examination, ophthalmic testing, and clinical laboratory tests. Dosage adjustments could be applied from cycle 2 according to the severity of the toxicities. Drug administration would be suspended when drug-related AEs were graded at 3 or 4, and the original dose or reduction dose would be given if the AEs returned to baseline or Grade 1 (nonhematological toxicities)/grade 2 (hematological toxicities) within 14 days.

For data set [2], the system named is EGFR with the L861Q mutation. On the set-up: method as in data not published. To be noted: ref data not published; cited from earlier work.
Data set [3] addresses interleukin-1 receptor-associated kinase 1 (IRAK1). On the set-up: method as in data not published. To be noted: ref data not published; cited from earlier work.
A further data set has as its system CYP3A4. On the set-up: method as in data not published. To be noted: in vitro studies; ref data not published; cited from earlier work.

Each structure is given as a SMILES string. pIC50: −log10 of the molar value. Structures can show the parent of a compound that is named as a salt.

Consider one compound from PMC7930822, “Phase I Trial to Evaluate the Tolerance, Pharmacokinetics and Efficacy of the Broad-Spectrum ErbB Family Inhibitor Larotinib Mesylate in Patients With Advanced Solid Tumors” (Frontiers in Pharmacology, 2021).

Usually pIC50 stands for −log10 of the IC50, conventionally taken in molar units. As to `COc1cc2ncnc(Nc3ccc(F)c(Cl)c3)c2cc1OCCCN1C[C@@H]2OCCO[C@@H]2C1` [larotinib mesylate], the “fold greater inhibitory activity than gefitinib” value in the data set with wild-type EGFR (ref Baselga and Averbuch, 2000) is recorded as 37 fold. Further, the “fold greater inhibitory activity than erlotinib” value with wild-type EGFR (ref Moyer et al., 1997) is reported as 3 fold. The “human equivalent effective dose” value in the data set on tumor-bearing mice is 86.4 mg/day. In addition, the MTD in patients result in data set [1] (50–400 mg/d oral) is “no MTD established”. Moreover, in data set [1] (human, in vivo), the “Grade 3 drug-related decreased lymphocytes” value was found to be 12%; the “Grade 3 drug-related diarrhea” value was 4%; the “Grade 3 drug-related nausea” value is 4%; the “drug-related acne-like rash, incidence” value worked out at 68.0%. For the same compound, in data set [1] (human, in vivo), the “drug-related anemia, incidence” value was found to be 48.0%; the “drug-related decreased lymphocyte percentage, incidence” value is given as 40.0%; the “drug-related diarrhea, incidence” value is given as 48.0%; the “drug-related hand-foot skin reaction, incidence” value came to 44.0%. In addition, in data set [1] (human, in vivo), the “drug-related hypoalbuminemia, incidence” value stood at 32.0%; the “drug-related nausea, incidence” value was 36.0%; the “drug-related paronychia, incidence” value is 48.0%; the “drug-related stomatitis, incidence” value stood at 44.0%. In data set [1] (human, in vivo), the “drug-related weight loss, incidence” value is on record as 32.0%; the “patients with Grade 3 drug-related AEs” value is listed as 20%; the “patients with at least one drug-related AE” value came out at 96%. Besides, in data set [2], the pIC50 was 9.37. Besides, the pIC50 in data set [3] was 6.78. Moreover, the “fraction metabolized by CYP3A4” value in the data set on CYP3A4 is reported as “around 85%”.
